The nature of this data set: Solubility in buffered solutions vs pH at 37 °C (HPLC). The class given is physicochemical. As to conditions: thermodynamic from solid, read-out: Solubility at 24 h. The protocol: Aqueous buffers between pH 1.3 and 7.4 (13 total) were prepared and 3 mL added to about 15 mg of SJB-01 (L100149-44-1, jet-milled). These slurries were stirred on a hot-plate at 37° C. for 24 hours. Sonication and vortexting was employed within the first 2 hours of stirring to ensure thorough mixing and wetting of the solids as there was a clear tendency for them to clump and float at the liquid surface. After sonication and vortexing there was substantial solids suspended in solution (slurry) along with the solids that floated on top. At 24 hours, the samples were collected by syringe filtration of about 2 mL of solution. The first 1 mL of solution that passed through the filter was discarded and the second 0.5-1 mL of solution was used for HPLC analysis. The samples were injected into HPLC without dilution.
SJB-01 (L100149-44-1) was weighed directly into volumetric flasks and filled to volume with ACN:water (6:4 vol.) to build a calibration curve. […] Details for the HPLC method used are given in Table 34; these follow the parameters used for previous dissolution study.

This is an account of results in patent US20210371385A1, “POLYMORPHIC AND AMORPHOUS FORMS OF ISOQUINOLINONE AND METHODS OF USE THEREOF” (Sojournix, Inc., priority 2018, published 2021).

Values after ≈ are worked out from the molar mass of the structure shown. Read-outs that look alike come from different tables or passages of the source.

Usually solubility stands for the concentration that dissolves in the medium under given conditions.

As to `CCNn1c(C)c(C(=O)N[C@H](c2ccccc2)C2CC2)c2cccc(F)c2c1=O` [SJB-01, 2-Ethylamino-8-fluoro-3-methyl-1-oxo-1,2-dihydro-isoquinoline-4-carboxylic acid ((S)-cyclopropyl-phenyl-methyl)-amide], the solubility at 24 h runs as follows: (Britton-Robinson 0.05M buffer, aqueous buffer, Britton-Robinson 0.05M, initial pH 2.21, 24 h pH 2.22, 37 °C) 7.9 µg/mL (≈ 20.1 µM); (Britton-Robinson 0.05M buffer, aqueous buffer, Britton-Robinson 0.05M, initial pH 2.85, 24 h pH 2.97, 37 °C) 7.4 µg/mL (≈ 18.8 µM); (Britton-Robinson 0.05M buffer, aqueous buffer, Britton-Robinson 0.05M, initial pH 4.95, 24 h pH 5.01, 37 °C) 7.7 µg/mL (≈ 19.6 µM); (Citric acid/NaOH 0.05M buffer, aqueous buffer, Citric acid/NaOH 0.05M, initial pH 2.86, 24 h pH 2.88, 37 °C) 8.1 µg/mL (≈ 20.6 µM); (Citric acid/NaOH 0.05M buffer, aqueous buffer, Citric acid/NaOH 0.05M, initial pH 3.82, 24 h pH 3.85, 37 °C) 7.5 µg/mL (≈ 19.1 µM); (Citric acid/NaOH 0.05M buffer, pH 4.9, aqueous buffer, Citric acid/NaOH 0.05M, initial pH 4.90, 24 h pH 4.90, 37 °C) 7.2 µg/mL (≈ 18.3 µM). The solubility at 24 h is 7.5 µg/mL (≈ 19.1 µM) (HCl/KCl 0.05M buffer, aqueous buffer, HCl/KCl 0.05M, initial pH 2.13, 24 h pH 2.16, 37 °C); 7.8 µg/mL (≈ 19.8 µM) (HCl/KCl 0.05M buffer, pH 1.3, simulated gastric fluid, HCl/KCl 0.05M, initial pH 1.34, 24 h pH 1.30, 37 °C, jet-milled beta form); 7.1 µg/mL (≈ 18 µM) (KH2PO4/NaOH 0.05M buffer, aqueous buffer, KH2PO4/NaOH 0.05M, initial pH 5.98, 24 h pH 6.04, 37 °C); 6.4 µg/mL (≈ 16.3 µM) (KH2PO4/NaOH 0.05M buffer, aqueous buffer, KH2PO4/NaOH 0.05M, initial pH 7.46, 24 h pH 7.47, 37 °C); 9.5 µg/mL (≈ 24.1 µM) (KHP/HCl 0.05M buffer, aqueous buffer, KHP/HCl 0.05M, initial pH 3.18, 24 h pH 3.14, 37 °C); 9.8 µg/mL (≈ 24.9 µM) (KHP/HCl 0.05M buffer, aqueous buffer, KHP/HCl 0.05M, initial pH 3.89, 24 h pH 3.94, 37 °C). The solubility at 24 h (KHP/NaOH 0.05M buffer, aqueous buffer, KHP/NaOH 0.05M, initial pH 4.96, 24 h pH 4.99, 37 °C) stood at 8.3 µg/mL (≈ 21.1 µM).
